Test results as given in patent US7625887B2, “Receptor agonists” (Takeda Pharmaceutical Company Limited, priority 2003, dated 2009).

What was measured:
NCI-H716 cells [1] = test: intracellular cAMP production increasing action in NCI-H716 cells; format: cell-based, human; details: bile acid 50 μM, 2 hrs; production amount in TLCA (50 μM) was 100%; Base 11
NCI-H716 cells [2] = test: GLP-1 secretion from NCI-H716 cell line; format: cell-based, human; details: bile acid 25 μM, 2 hrs; secretion amount in Base was 100%
Protocol: NCI-H716 cells secrete Glucagon-like peptide-1 (GLP-1). GLP-1 is a peptide useful for controlling blood glucose level because it acts on the pancreas to cause secretion of insulin and the like. In the same manner as in Experimental Example 9, NCI-H716 (ATCC) was seeded in a 96 well plate and, after incubation for 2 days, used for the following secretion test. As a buffer for secretion test, modified Krebs-Ringer bicarbonate buffer (KRBH, 116 mM NaCl, 4.7 mM KCl, 1.2 mM KH2PO4, 1.2 mM MgSO4, 2.5 mM CaCl2, 25 mM NaHCO3, 24 mM HEPES, pH 7.3) supplemented with glucose 5.5 mM and BSA 0.1% was used. The cells were washed once with the buffer for secretion test, preincubated at 37° C. under 5% CO2, bile acid diluted with the buffer for secretion test was added and the cells were cultured at 37° C. under 5% CO2 for 2 hrs. The cell culture supernatant was collected, cryopreserved and the GLP-1 content in the supernatant was measured using a GLP-1 measurement EIA kit (Linco) The results are shown in Table 9. In the Table, Base means non-addition of a test compound.

[3] = test system: guinea pig intestine primary culture cells; test: GLP-1 secretion from guinea pig intestine primary culture cells; format: cell-based; details: bile acid 50 μM, 90 min
Protocol: Colon mucous membrane of guinea pig (Hartley, male, Charles River Japan, Inc.) was removed and subjected to an enzyme treatment to give a cell dispersion according to the following method.
(§1) The enzyme solution used was obtained by dissolving 5 mg/ml Collagenase (Sigma), 5 mg/ml Hyaluronidase (Sigma) and 0.5 mg/ml DNaseI (Sigma) in a medium. The medium used was Dulbecco's Modified Eagle Medium (DMEM, Invitrogen) supplemented with 4.5 g/l Glucose, 5% FBS (Invitrogen), 100 units/ml Penicillin (Invitrogen), 100 μg/ml Streptomycin (Invitrogen), 50 μg/ml Gentamicin (Invitrogen) and 20 mM Hepes (pH 7.3). After digestion by the enzyme solution at 37° C., the tissue sections were prepared into dispersed cells by passing through a pipette 4 times and the cells were collected. The collected cells were washed with a buffer (incubation buffer) obtained by adding 5.5 mM Glucose and 0.1% BSA to a modified Krebs-Ringer bicarbonate buffer (KRBH, 116 mM NaCl, 4.7 mM KCl, 1.2 mM KH2PO4, 1.2 MM MgSO4, 2.5 mM CaCl2, 25 mM NaHCO3, 24 mM HEPES, pH 7.3), and preincubated at 37° C. under 5% CO2 for 30 min. 0.1 μM Phorbol ester (Wako), 1% DPPIV inhibitor (Linco) and a test compound were added to the above-mentioned incubation buffer, and the obtained buffer was added to the cells after the aforementioned preincubation and incubated for 90 min. The culture supernatant was collected and cryopreserved. The concentration of GLP-1 released in the culture supernatant was measured using an ELISA kit (Linco).

[4] = test system: guinea pig peripheral blood mononuclear cells; test: TNF secretion in LPS-stimulated guinea pig peripheral blood mononuclear cells; format: cell-based; details: 16 hrs, bile acid 50 μM; non-addition: 160 with LPS, 13 without
Protocol: The peripheral blood was taken from guinea pig, and mononuclear cell fraction was obtained by a density separation method using Ficoll-Paque PLUS (Amersham Pharmacia). The fraction at a concentration of 1×10^5/well was cultured for 16 hrs in the presence of […] LPS in a 96-well plate upon addition of bile acid or a test compound. The culture supernatant was collected and TNF and IL-6 in the supernatant were quantitated.
The TNF secretion amount in the culture supernatant was measured in the same manner as in Experimental Example 7.

[5] = test system: rat intestine primary culture cells; test: GLP-1 secretion from rat intestine primary culture cells; format: cell-based; details: bile acid 100 μM, 150 min
Protocol: Terminal ileum and colon mucous membrane were removed from rat (Wistar, male, Charles River Japan, Inc.) and subjected to an enzyme treatment to give a cell dispersion according to the following method.
as §1, with “pipette 7” for “pipette 4”, “1.2 mM” for “1.2 MM”, “for 150” for “for 90”

In the case of `C[C@H](CCC(=O)NCCS(=O)(=O)O)[C@H]1CC[C@H]2[C@@H]3CC[C@@H]4C[C@H](O)CC[C@]4(C)[C@H]3CC[C@]12C` [TLCA, taurolithocholic acid, reference compound], the “cAMP production increasing activity (%)” value (NCI-H716 cells [1]) is reported as 100%, the “GLP-1 secretion increase (%)” value (NCI-H716 cells [2]) is reported as 124% and the “GLP-1 (% relative to non-addition)” value [3] is reported as 400 % relative to non-addition. The “TNF α” value [4] was 60 pg/mL and the “GLP-1 (% relative to non-addition)” value [5] was 290 % relative to non-addition.
